Patent publication US20260272907A1, “Therapeutic Tyrosine Kinase Inhibitors for Multiple Sclerosis” (Principia Biopharma Inc., priority 2022, published 2026)

Test system: patients with relapsing multiple sclerosis
Experiment: Phase 2b dose-finding study: adverse events (TEAEs, SAEs, AESIs), safety population
Details: for Proportion of participants with TEAEs: BTK inhibitor treatment period (12 weeks); for Adverse event: Accidental overdose / Adverse event: Alanine aminotransferase increased / Adverse event: Alopecia / Adverse event: Back pain / Adverse event: Gastroenteritis / Adverse event: Headache / Adverse event: Muscle spasticity / Adverse event: Nasopharyngitis / Adverse event: Oropharyngeal pain / Adverse event: Peripheral edema / Adverse event: Respiratory tract infection / Adverse event: Upper respiratory tract infection: 12 weeks treatment
[1] = 15 mg, 12-week treatment period
[2] = 30 mg, 12-week treatment period
[3] = 60 mg, 12-week treatment period
[4] = All (N = 130), BTK inhibitor treatment period, safety population
[5] = All Dose Groups (N = 130), Weeks 1 to 12
[6] = BTK inhibitor 5 (N = 16), Weeks 1 to 4
[7] = BTK inhibitor 5 (N = 33), BTK inhibitor treatment period, safety population
[8] = BTK inhibitor 15 (N = 16), Weeks 1 to 4
[9] = BTK inhibitor 15 (N = 32), BTK inhibitor treatment period, safety population
[10] = BTK inhibitor 30 (N = 16), Weeks 1 to 4
[11] = BTK inhibitor 30 (N = 33), BTK inhibitor treatment period, safety population
[12] = BTK inhibitor 60 (N = 16), Weeks 1 to 4
[13] = BTK inhibitor 60 (N = 32), BTK inhibitor treatment period, safety population
[14] = BTKi 5 mg (N = 16), Weeks 1 to 4
[15] = BTKi 5 mg (n = 33), Weeks 1 to 12

## C=CC(=O)N1CCC[C@@H](n2c(=O)n(-c3ccc(Oc4ccccc4)cc3)c3c(N)nccc32)C1 [the BTK inhibitor, (R)-1-(1-acryloylpiperidin-3-yl)-4-amino-3-(4-phenoxyphenyl)-1H-imidazo[4,5-c]pyridin-2(3H)-one]
5 mg, 12-week treatment period
  Alanine aminotransferase increased (TEAE): 1
  Alopecia (TEAE): 1
  Back pain (TEAE): 1
  Gastroenteritis (TEAE): 1
  Headache (TEAE): 1
  Nasopharyngitis (TEAE): 1
  Oedema peripheral (TEAE): 2
  Oropharyngeal pain (TEAE): 1
  Upper respiratory tract infection (TEAE): 2
5 mg
  Proportion of participants with TEAEs: 57.6%
5 mg, Weeks 1 to 4
  Headache (TEAE): 3 cases
  Nausea (TEAE): 2 cases
  Proportion of participants who experienced TEAEs: 31.3%
[1]
  Alopecia (TEAE): 1
  Back pain (TEAE): 1
  Headache (TEAE): 3
  Respiratory tract infection (TEAE): 1
  Upper respiratory tract infection (TEAE): 2
15 mg
  Proportion of participants with TEAEs: 53.1%
15 mg, Weeks 1 to 4
  Headache (TEAE): 2 cases
  Proportion of participants who experienced TEAEs: 18.8%
30 mg treatment period
  AESIs (alanine aminotransferase increased >3×ULN): 1
[2]
  Alanine aminotransferase increased (TEAE): 1
  Back pain (TEAE): 2
  Headache (TEAE): 1
  Muscle spasticity (TEAE): 1
  Nasopharyngitis (TEAE): 1
  Oropharyngeal pain (TEAE): 1
  Respiratory tract infection (TEAE): 1
  Upper respiratory tract infection (TEAE): 1
30 mg
  Proportion of participants with TEAEs: 54.5%
30 mg, Weeks 1 to 4
  Nausea (TEAE): 1 cases
  Proportion of participants who experienced TEAEs: 12.5%
60 mg group, all other TEAEs mild or moderate
  Severe TEAEs: one
60 mg treatment period
  AESIs (alanine aminotransferase increased >3×ULN): 1
60 mg, Cohort 1, about 8 weeks after starting treatment
  Treatment-emergent SAEs (MS relapse): One
[3]
  Accidental overdose (TEAE): 3
  Alanine aminotransferase increased (TEAE): 1
  Alopecia (TEAE): 1
  Gastroenteritis (TEAE): 2
  Headache (TEAE): 4
  Muscle spasticity (TEAE): 2
  Nasopharyngitis (TEAE): 3
  Oedema peripheral (TEAE): 2
  Oropharyngeal pain (TEAE): 1
  Respiratory tract infection (TEAE): 1
  Upper respiratory tract infection (TEAE): 1
60 mg
  Proportion of participants with TEAEs: 50.0%
60 mg, Weeks 1 to 4
  Headache (TEAE): 1 cases
  Proportion of participants who experienced TEAEs: 31.3%
5-60 mg
  Correlation between dose administered and number of TEAEs: no direct correlation
5-60 mg once daily, over the 12 weeks of treatment
  Tolerability: well-tolerated
[4]
  AESI: Alanice aminotransferase increased: 2 (1.5) n (%)
  AESI: Investigations: 2 (1.5) n (%)
  Any AESI: 2 (1.5) n (%)
  Participants with any TEAE: 69 (53.1) n (%)
  Participants with any TEAE leading to death: 0 n (%)
  Participants with any TEAE leading to study treatment discontinuation: 0 n (%)
  Participants with any severe TEAE: 1 (0.8) n (%)
  Participants with any treatment emergent SAE: 1 (0.8) n (%)
  Participants with any treatment-related TEAE: 15 (11.5) n (%)
  Participants with study discontinuation due to any TEAE: 0 n (%)
  Participants with treatment emergent SAE(s): Any class: 1 (0.8) n(%)
  Participants with treatment emergent SAE(s): Multiple sclerosis relapse: 1 (0.8) n(%)
  Participants with treatment emergent SAE(s): NERVOUS SYSTEM DISORDERS: 1 (0.8) n(%)
All (N = 130), Weeks 1 to 4
  Participants with any TEAE leading to death: 0 n (%)
  Participants with any TEAE leading to study treatment discontinuation: 0 n (%)
  Participants with any severe TEAE: 0 n (%)
  Participants with any treatment emergent SAE: 0 n (%)
  Participants with study discontinuation due to any TEAE: 0 n (%)
All Dose Groups (N = 130)
  Adverse event: Accidental overdose: 3 (2%)
  Adverse event: Alanine aminotransferase increased: 3 (2%)
  Adverse event: Alopecia: 3 (2%)
  Adverse event: Back pain: 4 (3%)
  Adverse event: Gastroenteritis: 3 (2%)
  Adverse event: Headache: 9 (7%)
  Adverse event: Muscle spasticity: 3 (2%)
  Adverse event: Nasopharyngitis: 5 (4%)
  Adverse event: Oropharyngeal pain: 3 (2%)
  Adverse event: Peripheral edema: 4 (3%)
  Adverse event: Respiratory tract infection: 3 (2%)
  Adverse event: Upper respiratory tract infection: 6 (5%)
[5]
  AE leading to death: 0 n (%)
  AE leading to study discontinuation: 0 n (%)
  Any AE (4 weeks vs. placebo 12 weeks): 70 (53.8) n (%)
  Any AE leading to study treatment discontinuation: 0 n (%)
  Any treatment-related AE: 17 (13.1) n (%)
  Serious AE: 1 (0.8) n (%)
[6]
  AESI: Alanice aminotransferase increased: 0 n (%)
  AESI: Investigations: 0 n (%)
  Any AESI: 0 n (%)
[7]
  AESI: Investigations: 0 n (%)
  Any AESI: 0 n (%)
BTK inhibitor 5, BTK inhibitor treatment period, safety population
  AESI: Alanice aminotransferase increased: 0 n (%)
[8]
  AESI: Alanice aminotransferase increased: 0 n (%)
  AESI: Investigations: 0 n (%)
  Any AESI: 0 n (%)
[9]
  AESI: Alanice aminotransferase increased: 0 n (%)
  AESI: Investigations: 0 n (%)
  Any AESI: 0 n (%)
[10]
  AESI: Alanice aminotransferase increased: 0 n (%)
  AESI: Investigations: 0 n (%)
  Any AESI: 0 n (%)
[11]
  AESI: Alanice aminotransferase increased: 1 (3.0) n (%)
  AESI: Investigations: 1 (3.0) n (%)
  Any AESI: 1 (3.0) n (%)
[12]
  AESI: Alanice aminotransferase increased: 0 n (%)
  AESI: Investigations: 0 n (%)
  Any AESI: 0 n (%)
[13]
  AESI: Alanice aminotransferase increased: 1 (3.1) n (%)
  AESI: Investigations: 1 (3.1) n (%)
  Any AESI: 1 (3.1) n (%)
BTK inhibitor treatment period, safety population
  Participants with any TEAE: 18 (54.5) n (%)
[14]
  AE leading to death: 0
  AE leading to study discontinuation: 0
  Any AE leading to study treatment discontinuation: 0
  Serious AE: 0
BTKi 5 mg (n = 33)
  Adverse event: Accidental overdose: 0%
  Adverse event: Alanine aminotransferase increased: 1 (3%)
  Adverse event: Alopecia: 1 (3%)
  Adverse event: Back pain: 1 (3%)
  Adverse event: Gastroenteritis: 1 (3%)
  Adverse event: Headache: 1 (3%)
  Adverse event: Muscle spasticity: 0%
  Adverse event: Nasopharyngitis: 1 (3%)
  Adverse event: Oropharyngeal pain: 1 (3%)
  Adverse event: Peripheral edema: 2 (6%)
  Adverse event: Respiratory tract infection: 0%
  Adverse event: Upper respiratory tract infection: 2 (6%)
[15]
  AE leading to death: 0 n (%)
  AE leading to study discontinuation: 0 n (%)
  Any AE (4 weeks vs. placebo 12 weeks): 19 (57.6) n (%)
  Any AE leading to study treatment discontinuation: 0 n (%)
